For orientation: inhibition means the percentage by which the read-out fell short of the control.

The values below come from publication PMC6934184, “Selective DNA-PKcs inhibition extends the therapeutic index of localized radiotherapy and chemotherapy” (The Journal of Clinical Investigation, 2019).

The assay concerns the target T1, MAPK9 (JNK2) (Homo sapiens, UniProt P45984).
T1 construct: purchased Thermo Fisher Scientific (Life Technologies) SelectScreen
In words: SelectScreen Z'LYTE. To be noted: ATP 100 µM. Type of assay: biochemical. In short, it runs like this: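 Percent values come from Thermo SelectScreen profiling of NU5455, combining activity and binding assays. CSF1R was run in Z'LYTE format at Km app ATP, and CAMK1 in Adapta format with ATP listed at 10.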

T1 sequence (P45984 whole entry): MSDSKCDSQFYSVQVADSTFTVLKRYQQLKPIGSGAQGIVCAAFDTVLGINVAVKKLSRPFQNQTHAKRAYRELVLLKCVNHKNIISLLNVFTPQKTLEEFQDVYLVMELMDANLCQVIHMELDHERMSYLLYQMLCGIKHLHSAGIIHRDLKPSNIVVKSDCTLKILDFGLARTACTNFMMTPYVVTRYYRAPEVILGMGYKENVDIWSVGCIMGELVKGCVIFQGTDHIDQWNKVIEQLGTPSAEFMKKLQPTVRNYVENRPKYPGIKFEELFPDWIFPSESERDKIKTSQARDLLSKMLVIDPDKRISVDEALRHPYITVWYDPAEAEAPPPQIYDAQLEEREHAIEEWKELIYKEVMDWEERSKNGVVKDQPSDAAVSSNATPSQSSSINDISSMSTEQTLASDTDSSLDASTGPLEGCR

Molecule `CN(C(=O)CN1CCOCC1)c1ccc2sc3c(-c4cccc5c(=O)cc(N6CC7CCC(C6)O7)oc45)cccc3c2c1` [NU5455] came in with an inhibition at 1 µM of 2.8%.
